Ki data for two compounds are collected here from ChEMBL document CHEMBL1140370, “Molecular modeling and molecular dynamics simulation of the human A2B adenosine receptor. The study of the possible binding modes of the A2B receptor antagonists” (J Med Chem, 2005).

Molecules are shown by their SMILES.

For the assay, the target named is T1, Adenosine receptor A2b (Homo sapiens, UniProt P29275).
T1 sequence (P29275 whole entry): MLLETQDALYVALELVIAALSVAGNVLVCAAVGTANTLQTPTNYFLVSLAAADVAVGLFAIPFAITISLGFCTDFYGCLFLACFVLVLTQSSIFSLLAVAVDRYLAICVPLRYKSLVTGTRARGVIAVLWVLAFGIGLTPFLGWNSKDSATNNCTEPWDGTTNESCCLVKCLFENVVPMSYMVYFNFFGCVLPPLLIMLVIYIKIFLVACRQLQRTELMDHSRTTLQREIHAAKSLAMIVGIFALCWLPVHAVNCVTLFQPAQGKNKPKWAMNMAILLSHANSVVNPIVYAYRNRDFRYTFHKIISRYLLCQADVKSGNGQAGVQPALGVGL
Nature of the assay: Antagonist activity against human Adenosine A2b receptor. In kind it is functional.

By Ki is commonly meant the equilibrium dissociation constant of an inhibitor or competing ligand from its target. Lower therefore signals higher affinity. The compound `CCCn1c(=O)c2[nH]c(-c3cc(OCC(=O)O)no3)nc2n(CCC)c1=O` registered a Ki of 18 nM. That is a double-digit nanomolar value.

`CCCn1c(=O)c2[nH]c(-c3ccc(OCC(=O)Nc4ccc(F)cc4)nc3)nc2n(CCC)c1=O` displayed a Ki of 4.8 nM.
